# Results published in US20210238197A1, “NOVEL OXOQUINOLIZINE COMPOUNDS FOR THE TREATMENT AND PROPHYLAXIS OF BACTERIAL INFECTION” (Hoffmann-La Roche Inc., priority 2018, published 2021).
# Where two headings read alike, the source gives them in different places.
# Key:
# [1] = Lyophilisation solubility assay (LYSA); format: physicochemical; details: aqueous buffer, thermodynamic from solid; 0.05 M phosphate buffer, pH 6.5; <1.0 = detection limit
# Description: The solubility of compounds of present invention was assessed by LYSA assay. Samples were prepared in duplicate from 10 mM DMSO stock solutions (20 μL) diluted in 30 μL pure DMSO. After evaporation of DMSO with a centrifugal vacuum evaporator, the residue was dissolved in 0.05 M phosphate buffer (150 μL, pH 6.5), which was stirred for one hour and shook for two hours. After one night, the solution was filtered using a microtiter filter plate. Then the filtrate and its 1/10 dilution were analyzed by HPLC-UV. In addition a four-point calibration curve was prepared from the 10 mM stock solutions and used for the solubility determination of the compounds.
# [2] = system: A. baumannii (ATCC17978); assay: 50% growth inhibitory concentration (IC50) determination assay, A. baumannii; format: cell-based; details: Acinetobacter baumannii, ATCC17978; Iso-Sensitest broth, growth by OD 600 nm over 16 h; <0.098 = detection limit
# Outline: (§1)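 Compounds two-fold diluted from 50 to 0.097 μM (final) in Iso-Sensitest broth, inoculum ~5×10^5 CFU/mL. Incubation at 35±2 °C with OD600 read every 20 min over 16 h to track growth.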
# [3] = system: K. pneumoniae (ATCC10031); assay: 50% growth inhibitory concentration (IC50) determination assay, K. pneumoniae; format: cell-based; details: Klebsiella pneumoniae, ATCC10031; Iso-Sensitest broth, growth by OD 600 nm over 16 h; <0.098 = detection limit
# Outline: as §1
# [4] = system: S. aureus (ATCC29213); assay: 50% growth inhibitory concentration (IC50) determination assay, S. aureus; format: cell-based; details: Staphylococcus aureus, ATCC29213; Iso-Sensitest broth, growth by OD 600 nm over 16 h; <0.098 = detection limit
# Outline: as §1
# [5] = Cytotoxicity assay (HepG2, CellTiter-Blue); format: cell-based; details: human; HepG2 cells, 3 days treatment; >100 = detection limit
# Description: The cytotoxicity of compounds of present invention was assessed by HepG2 assay. HepG2 cells (ATCC RB-8065™) were seeded into 96-well plates (1.2×10^4 cells per well) and treated with compounds for 3 days, cell viability was measured at day 3 post compound treatment using the CellTiter-Blue® Cell Viability Assay (Promega, Cat. No. G8082). […], of Cell titer blue buffer were added to each well of the cells, which were incubated for 3 hours at 37° C., and the fluorescence value was measured by a plate reader (Molecular Device SpectraMax M2). The CC50 value of each compound is plotted with GraphPad Prism using four parameter logistic equation.
# [6] = system: multiple species and strains; assay: microbe, parasite or virus in culture; design: MIC S9 / MIC S7 / MIC S11 / MIC S8 / MIC S10: unit not given beside the values; details: for MIC S9: E. coli ATCC 35218
# Outline: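 Broth microdilution per CLSI M07-A10 in CAMHB, CAMHB+3% lysed horse blood or HTM. Inoculum was set to OD600 ~0.1, then diluted 1:280 (Gram-positive) or 1:400 (Gram-negative), and plates were incubated 18-24 h at 35±2° C in ambient air. MIC (μg/mL) is the lowest concentration giving no visible growth.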
# [7] = Acinetobacter baumannii, ATCC19606, read-out: MIC S1, A. baumannii ATCC 19606
# [8] = Acinetobacter baumannii, ATCC51432, read-out: MIC S2, A. baumannii ATCC 51432
# [9] = Acinetobacter baumannii, ATCCBAA747, read-out: MIC S3, A. baumannii ATCC BAA-747
# [10] = Escherichia coli, ATCC25922, read-out: MIC S11, E. coli ATCC 25922
# [11] = Escherichia coli, ATCCBAA2340, read-out: MIC S10, E. coli ATCC BAA-2340
# [12] = Klebsiella pneumoniae, ATCC10031, read-out: MIC S4, K. pneumoniae ATCC 10031
# [13] = Klebsiella pneumoniae, ATCC700603, read-out: MIC S5, K. pneumoniae ATCC 700603
# [14] = Klebsiella pneumoniae, ATCCBAA2146, read-out: MIC S6, K. pneumoniae ATCC BAA-2146
# [15] = Pseudomonas aeruginosa, ATCC27853, read-out: MIC S7, P. aeruginosa ATCC 27853
# [16] = Pseudomonas aeruginosa, ATCCBAA2113, read-out: MIC S8, P. aeruginosa ATCC BAA-2113
solubility thermodynamic [1],IC50 [2],IC50 [3],IC50 [4],Compound,CC50 at 3 days [5],"MIC [6, 7]","MIC [6, 8]","MIC [6, 9]",MIC S9 [6],"MIC [6, 10]","MIC [6, 11]","MIC [6, 12]","MIC [6, 13]","MIC [6, 14]","MIC [6, 15]","MIC [6, 16]"
29 µg/mL,< 98 nM,< 98 nM,185 nM,"CNc1cc(Cl)cc2c1[nH]c1ncc(-c3ccc4ccc(C(=O)O)c(=O)n4c3)c(N3CC[C@H]4CN(C)C[C@H]43)c12 (relative stereo) [Example 1.19, 7-[6-chloro-4-(cis-5-methyl-2,3,3a,4,6,6a-hexahydropyrrolo[2,3-c]pyrrol-1-yl)-8-(methylamino)-9H-pyrido[2,3-b]indol-3-yl]-4-oxo-quinolizine-3-carboxylic acid]",–,–,–,–,–,–,–,–,–,–,–,–
41 µg/mL,< 98 nM,< 98 nM,< 98 nM,"CNc1cc(F)c(F)c2c1[nH]c1ncc(-c3cc(C)c4ccc(C(=O)O)c(=O)n4c3)c(N3CC[C@H]4CN(C)C[C@H]43)c12 (relative stereo) [Example 2.01, 7-(5,6-Difluoro-8-(methylamino)-4-(cis-5-methyl-2,3,3a,4,6,6a-hexahydropyrrolo[2,3-c]pyrrol-1-yl)-9H-pyrido[2,3-b]indol-3-yl)-9-methyl-4-oxo-4H-quinolizine-3-carboxylic acid]",–,–,–,–,–,–,–,–,–,–,–,–
58 µg/mL,< 98 nM,< 98 nM,108 nM,"CNc1cc(F)c(F)c2c1[nH]c1ncc(-c3cc(F)c4ccc(C(=O)O)c(=O)n4c3)c(N3CC[C@H]4CN(C)C[C@H]43)c12 (relative stereo) [Example 2.02, 7-[4-[cis-5-methyl-2,3,3a,4,6,6a-hexahydropyrrolo[2,3-c]pyrrol-1-yl]-5,6-difluoro-8-(methylamino)-9H-pyrido[2,3-b]indol-3-yl]-9-fluoro-4-oxo-quinolizine-3-carboxylic acid]",–,–,–,–,–,–,–,–,–,–,–,–
7 µg/mL,–,–,–,"CNc1cc(F)c(F)c2c1[nH]c1ncc(-c3ccc4c(C(F)(F)F)cc(C(=O)O)c(=O)n4c3)c(N3CC[C@H]4CN(C)C[C@H]43)c12 (relative stereo) [Example 2.06, 7-[4-[cis-5-methyl-2,3,3a,4,6,6a-hexahydropyrrolo[2,3-c]pyrrol-1-yl]-5,6-difluoro-8-(methylamino)-9H-pyrido[2,3-b]indol-3-yl]-4-oxo-1-(trifluoromethyl)quinolizine-3-carboxylic acid]",–,–,–,–,–,–,–,–,–,–,–,–
> 940 µg/mL,–,–,–,"CNc1cc(F)c(F)c2c1[nH]c1ncc(-c3ccc4c(CN5CCCC5)cc(C(=O)O)c(=O)n4c3)c(N3CC[C@H]4CN(C)C[C@H]43)c12 (relative stereo) [Example 2.10, 7-[4-[cis-5-methyl-2,3,3a,4,6,6a-hexahydropyrrolo[2,3-c]pyrrol-1-yl]-5,6-difluoro-8-(methylamino)-9H-pyrido[2,3-b]indol-3-yl]-4-oxo-1-(pyrrolidin-1-ylmethyl)quinolizine-3-carboxylic acid]",89200 nM,–,–,–,–,–,–,–,–,–,–,–
9 µg/mL,< 98 nM,< 98 nM,< 98 nM,"CNc1cc(F)cc2c1[nH]c1ncc(-c3ccc4ccc(C(=O)O)c(=O)n4c3)c(N3C[C@H]4CCN(C)[C@H]4C3)c12 (single isomer, unassigned) [Example 3.01A]",–,–,–,–,–,–,–,–,–,–,–,–
16 µg/mL,< 98 nM,< 98 nM,< 98 nM,"CNc1cc(F)cc2c1[nH]c1ncc(-c3ccc4ccc(C(=O)O)c(=O)n4c3)c(N3C[C@@H]4CCN(C)[C@@H]4C3)c12 (single isomer, unassigned) [Example 3.01B]",–,–,–,–,–,–,–,–,–,–,–,–
> 683 µg/mL,483 nM,< 98 nM,1280 nM,"CNc1cc(F)cc2c1[nH]c1ncc(-c3ccc4ccc(C(=O)O)c(=O)n4c3)c(N3CC[C@@H]4CN(C)C[C@@H]43)c12 (single isomer, unassigned) [Example 3.02B]",–,–,–,–,–,–,–,–,–,–,–,–
90 µg/mL,< 98 nM,< 98 nM,< 98 nM,"CNc1cc(F)cc2c1[nH]c1ncc(-c3ccc4ccc(C(=O)O)c(=O)n4c3)c(N3CCC4(C)CN(C)CC34)c12 (stereo not drawn) [Example 1.10, 7-[4-(3a,5-dimethyl-3,4,6,6a-tetrahydro-2H-pyrrolo[2,3-c]pyrrol-1-yl)-6-fluoro-8-(methylamino)-9H-pyrido[2,3-b]indol-3-yl]-4-oxo-quinolizine-3-carboxylic acid]",–,–,–,–,–,–,–,–,–,–,–,–
48 µg/mL,242 nM,< 98 nM,379 nM,"CNc1cc(F)cc2c1[nH]c1ncc(-c3ccc4ccc(C(=O)O)c(=O)n4c3)c(N3CCO[C@H](CN(C)C)C3)c12 [Example 2.07, (R)-7-(4-(2-((dimethylamino)methyl)morpholino)-6-fluoro-8-(methylamino)-9H-pyrido[2,3-b]indol-3-yl)-4-oxo-4H-quinolizine-3-carboxylic acid]",–,–,–,–,–,–,–,–,–,–,–,–
54 µg/mL,132 nM,< 98 nM,433 nM,"CNc1cc(F)cc2c1[nH]c1ncc(-c3ccc4ccc(C(=O)O)c(=O)n4c3)c(N3CCO[C@@H](CN(C)C)C3)c12 [Example 2.08, (S)-7-(4-(2-((dimethylamino)methyl)morpholino)-6-fluoro-8-(methylamino)-9H-pyrido[2,3-b]indol-3-yl)-4-oxo-4H-quinolizine-3-carboxylic acid]",–,–,–,–,–,–,–,–,–,–,–,–

Compound,solubility thermodynamic [1],IC50 [2],IC50 [3],IC50 [4],CC50 at 3 days [5],"MIC [6, 7]","MIC [6, 8]","MIC [6, 9]",MIC S9 [6],"MIC [6, 10]","MIC [6, 11]","MIC [6, 12]","MIC [6, 13]","MIC [6, 14]","MIC [6, 15]","MIC [6, 16]"
"CNc1cc(F)c(C#N)c2c1[nH]c1ncc(-c3ccc4ccc(C(=O)O)c(=O)n4c3)c(N3CC[C@H]4CCN(C)C4C3)c12 (stereo in doubt) [Example 1.17, 7-[4-[cis-1-methyl-3,3a,4,5,7,7a-hexahydro-2H-pyrrolo[2,3-c]pyridin-6-yl]-5-cyano-6-fluoro-8-(methylamino)-9H-pyrido[2,3-b]indol-3-yl]-4-oxo-quinolizine-3-carboxylic acid]",12 µg/mL,< 98 nM,< 98 nM,139 nM,–,0.882 µg/mL,0.882 µg/mL,0.882 µg/mL,0.882,0.166 µg/mL,0.882 µg/mL,0.028 µg/mL,3.54 µg/mL,3.54 µg/mL,0.882 µg/mL,3.54 µg/mL
"CNc1cc(F)c(F)c2c1[nH]c1ncc(-c3ccc4ccc(C(=O)O)c(=O)n4c3)c(N3CC[C@]4(C[C@@H]4N)C3)c12 [Example 4.01D, 7-(4-((1S,3S)-1-amino-5-azaspiro[2.4]heptan-5-yl)-5,6-difluoro-8-(methylamino)-9H-pyrido[2,3-b]indol-3-yl)-4-oxo-4H-quinolizine-3-carboxylic acid]",–,< 98 nM,< 98 nM,< 98 nM,> 100000 nM,0.592 µg/mL,1.19 µg/mL,1.19 µg/mL,1.186,0.111 µg/mL,0.592 µg/mL,0.037 µg/mL,4.74 µg/mL,4.74 µg/mL,1.19 µg/mL,2.37 µg/mL
"CNc1cc(F)c(Cl)c2c1[nH]c1ncc(-c3ccc4ccc(C(=O)O)c(=O)n4c3)c(N3CC[C@@]4(C[C@H]4N)C3)c12 [Example 5.01C, 7-(4-((1R,3R)-1-amino-5-azaspiro[2.4]heptan-5-yl)-5-chloro-6-fluoro-8-(methylamino)-9H-pyrido[2,3-b]indol-3-yl)-4-oxo-4H-quinolizine-3-carboxylic acid]",–,< 98 nM,< 98 nM,< 98 nM,> 100000 nM,0.516 µg/mL,0.258 µg/mL,0.516 µg/mL,0.258,0.194 µg/mL,0.258 µg/mL,0.032 µg/mL,2.07 µg/mL,2.07 µg/mL,1.03 µg/mL,2.07 µg/mL
